Assay results published in patent US10479792B2, “Compounds” (GlaxoSmithKline Intellectual Property Development Limited, priority 2015, dated 2019).

What was measured:
[1] = tested on: Leishmania donovani; experiment: Intramacrophage Leishmania donovani assay (Assay 1), average number of amastigotes per cell (potency readout); type: cell-based; settings: THP-1, 96 h, amastigotes in PMA-differentiated THP-1 macrophages, 96 h incubation, read-out: pEC50 value against Leishmania donovani (converted)
Description: Assay 1. Intramacrophage Leishmania donovani Assay
The intramacrophage Leishmania assay was performed using a modified version of the method described in De Rycker et al. (Antimicrob Agents Chemother. 2013 July; 57(7):2913-22. Comparison of a high-throughput high-content intracellular Leishmania donovani assay with an axenic amastigote assay. De Rycker M, Hallyburton I, Thomas J, Campbell L, Wyllie S, Joshi D, Cameron S, Gilbert I H, Wyatt P G, Frearson J A, Fairlamb A H, Gray D W.). Procedure: 350 nl of compound was pre-dispensed into 384 well sterile intermediary plates. For single point screening, amphotericin B was added to all wells of column 24 as a positive control (final concentration 2 μM) and DMSO to column 23. For potency determinations, ten-point, one in three dilution curves were created with the highest concentration being 50 μM and on each plate a control curve of amphotericin B was included. Controls were as follows: columns 11 and 12: DMSO, columns 23 and 24: amphotericin B (final concentration 2 μM). To the intermediary plates, 35 μl of THP-1 media was added and plates were shaken for >5 min to ensure complete mixing. THP-1 cells (8,000 per well, 50 μl) were plated into black clear-bottom 384 well plates (Corning) in presence of 20 nM PMA. After 20 min at RT, the plates were incubated at 37° C. under 5% CO2 in a humidified incubator for 75 h. The cells were then washed with […] sterile phosphate buffered saline (PBS) supplemented with 1 mM CaCl2, 0.5 mM MgCl2, 0.1% (w/v) bovine serum albumin (PBS-A) and amastigotes were added to all wells at a multiplicity of infection of 5 (40,000 amastigotes per well). After 40 min at RT, plates were returned to the incubator. Amastigotes were incubated in the presence of THP-1 macrophages for 16 h. Any remaining extracellular amastigotes were subsequently removed with an overflow wash of 1 mL PBS-A per well (wash buffer is being aspirated from the top of the well as it is being dispensed) followed by addition of 25 μl of the compound pre-dilutions using a Fluidx Ipette-pro pipetting station. The final dilution of each compound was 200-fold. Plates were incubated for 96 h and then washed (250 μl PBS-A) and fixed (4% (v/v) formaldehyde-PBS, 30 min, RT). After fixation, the wells were washed with 250 μl PBS, stained (10 μg/mL DAPI, 0.4 μg mL-1 HCS Cellmask Deep Red in PBS+0.1% (v/v) Triton X-100, 30 min, RT) and washed with 250 μl PBS. Finally, PBS+0.05% (v/v) thimerosal was added to the wells, the plates were sealed and imaged on a high-content microscope (GE IN Cell 2000) using a 10× objective. Image analysis was carried out with GE IN Cell Analyzer 1000 Workstation using the “Multi Target Analysis” module. Settings for segmentation were as follows: nuclei: minimum area: 142.384 μm2, sensitivity: 81, method: top-hat; cells: characteristic area: 2500 μm2, sensitivity: 60, method: multiscale top-hat; organelles (amastigotes): granule size 1-3, 3 scales, sensitivity: 90, detection in entire cell. For each well, i) THP-1 cell count (cytotoxicity readout) and ii) average number of amastigotes per cell (potency readout) were calculated, both in terms of pEC50 values.

[2] = tested on: Leishmania donovani; experiment: Leishmania donovani intracellular assay (Assay 5); type: cell-based; settings: THP-1, 96 h, eGFP amastigotes in THP-1 cells, 96 h incubation, read-out: pEC50 value against Leishmania donovani (converted)
Description: Assay 5. Leishmania donovani Intracellular Assay
Compounds were dispensed into black 384-well assay plates (Greiner) by acoustic dispensing (LabCyte ECHO). For potency determinations, eleven-point, one in three dilution curves were generated, with a top concentration of 50 μM. THP-1 human monocytes cells were dispensed in T225 tissue culture flasks and differentiated using 30 nM of PMA, after 24 hours they were infected overnight using Leishmania donovani expressing Green Fluorescent Protein (eGFP) amastigotes in the same T225 tissue culture flasks at a multiplicity of infection of 10. Next, any remaining free amastigotes were washed away with PBS and the infected THP-1 cells were harvested by trypsinisation. The infected cells were then plated into 384-well plates containing the compounds to be tested, at 3000 cells per well in RPMI media with 2% FBS and 25 mM Sodium bicarbonate. After 96 h incubation at 37° C. in presence of 5% CO2, the plates were fixed with 4% formaldehyde for 30 minutes, washed with PBS and stained with 0.1 mg/mL of DAPI for 30 minutes and washed again with PBS. The plates were imaged on a Perkin Elmer Opera high-content imaging system using a 20× air objective with two expositions, one for DAPI stain and other for eGFP. Images were analysed using the Acapella building blocks system (Perkin Elmer). The image analysis algorithm first identified the THP-1 nuclei followed by demarcation of the cytoplasm and identification of intracellular amastigotes. This algorithm reported mean number of parasites per THP-1 cell, the percentage of infected THP-1 cells and the total number of THP-1 cells.

SMILES	EC50 [1] [µM]	EC50 [2] [µM]
O=C(Nc1ccc(F)c(-c2ccn3c(-c4cnccn4)cnc3n2)c1)N1CCCC1 [Example 27, N-(4-fluoro-3-(3-(pyrazin-2-yl)imidazo[1,2-a]pyrimidin-7-yl)phenyl)pyrrolidine-1-carboxamide]	0.251 to 10	0.126 to 10
O=C(Nc1ccc(F)c(-c2ccn3c(CC4CCCO4)cnc3n2)c1)N1CCCC1 (stereo not shown) [Example 45, N-(4-fluoro-3-(3-((tetrahydrofuran-2-yl)methyl)imidazo[1,2-a]pyrimidin-7-yl)phenyl)pyrrolidine-1-carboxamide]	–	0.126 to 10
Cc1cc(-c2cc(NC(=O)N3CCCC3)ccc2F)nc2ncc(N3CCOCC3)n12 [Example 12, N-(4-fluoro-3-(5-methyl-3-morpholinoimidazo[1,2-a]pyrimidin-7-yl)phenyl)pyrrolidine-1-carboxamide]	0.251 to 10	0.126 to 10
COC1CCN(c2cnc3nc(-c4cc(NC(=O)N5CCCC5)ccc4F)ccn23)CC1 [Example 47, N-(4-fluoro-3-(3-(4-methoxypiperidin-1-yl)imidazo[1,2-a]pyrimidin-7-yl)phenyl)pyrrolidine-1-carboxamide]	0.251 to 10	0.126 to 10
CN1CCN(c2cnc3nc(-c4cc(NC(=O)N5CCCC5)ccc4F)ccn23)CC1 [Example 36, N-(4-fluoro-3-(3-(4-methylpiperazin-1-yl)imidazo[1,2-a]pyrimidin-7-yl)phenyl)pyrrolidine-1-carboxamide]	12.6 to 20	0.126 to 10
O=C(Nc1cc(-c2ccn3c(N4CCOCC4)cnc3n2)c(F)cc1F)N1CCCC1 [Example 46, N-(2,4-difluoro-5-(3-morpholinoimidazo[1,2-a]pyrimidin-7-yl)phenyl)pyrrolidine-1-carboxamide]	> 50.1	0.126 to 10
C[C@@H]1CN(c2cnc3nc(-c4cc(NC(=O)N5CCCC5)ccc4F)ccn23)C[C@H](C)O1 [Example 30, N-(3-(3-((2S,6R)-2,6-dimethylmorpholino)imidazo[1,2-a]pyrimidin-7-yl)-4-fluorophenyl)pyrrolidine-1-carboxamide]	0.251 to 10	0.126 to 10
O=C(Nc1ccc(F)c(-c2ccn3c(N4CCNCC4)cnc3n2)c1)N1CCCC1 [Example 32, N-(4-fluoro-3-(3-(piperazin-1-yl)imidazo[1,2-a]pyrimidin-7-yl)phenyl)pyrrolidine-1-carboxamide]	> 50.1	12.6 to 39.8
O=C(Nc1ccc(F)c(-c2cc(C(=O)N3CCCC3)n3ccnc3n2)c1)N1CCCC1 [Example 50, N-(4-fluoro-3-(5-(pyrrolidine-1-carbonyl)imidazo[1,2-a]pyrimidin-7-yl)phenyl)pyrrolidine-1-carboxamide]	> 50.1	12.6 to 39.8
O=C(Nc1ccc(F)c(-c2ccn3c(N4CCOCC4)cnc3n2)c1)N1CCC1 [Example 51, N-(4-fluoro-3-(3-morpholinoimidazo[1,2-a]pyrimidin-7-yl)phenyl)azetidine-1-carboxamide]	–	0.126 to 10
CC1(C)COCCN1c1cnc2nc(-c3cc(NC(=O)N4CCCC4)ccc3F)ccn12 [Example 42, N-(3-(3-(3,3-dimethylmorpholino)imidazo[1,2-a]pyrimidin-7-yl)-4-fluorophenyl)pyrrolidine-1-carboxamide]	0.251 to 10	0.126 to 10
O=C(Nc1ccc(F)c(-c2ccn3c(N4CCOCC4)cnc3n2)c1)N1CC[C@@H](F)C1 [Example 23, 3-fluoro-N-(4-fluoro-3-(3-morpholinoimidazo[1,2-a]pyrimidin-7-yl)phenyl)pyrrolidine-1-carboxamide]	–	0.126 to 10

Further lines, with some results ahead:

EC50 [1] [µM]	SMILES	EC50 [2] [µM]
12.6 to 20	O=C(Nc1ccc(F)c(-c2ccn3c(C4COCCN4)cnc3n2)c1)N1CCCC1 (stereo not shown) [Example 38, N-(4-fluoro-3-(3-(morpholin-3-yl)imidazo[1,2-a]pyrimidin-7-yl)phenyl)pyrrolidine-1-carboxamide]	–
> 50.1	CC1(C)CCCN1C(=O)Nc1ccc(F)c(-c2ccn3c(N4CCOCC4)cnc3n2)c1 [N-(4-fluoro-3-(3-morpholinoimidazo[1,2-a]pyrimidin-7-yl)phenyl)-2,2-dimethylpyrrolidine-1-carboxamide]	–
0.251 to 10	O=C(Nc1cccc(-c2cnn3c(N4CCOCC4)cnc3n2)c1)N1CCCC1 [Example 9, N-(3-(7-morpholinoimidazo[1,2-b][1,2,4]triazin-3-yl)phenyl)pyrrolidine-1-carboxamide]	–
0.251 to 10	C[C@H]1CCN(C(=O)Nc2ccc(F)c(-c3ccn4c(N5CCOCC5)cnc4n3)c2)C1 [Example 34a]	–
0.251 to 10	O=C(Nc1cccc(-c2cnn3c(-c4ccccc4)cnc3n2)c1)N1CCCC1 [Example 10, N-(3-(7-phenylimidazo[1,2-b][1,2,4]triazin-3-yl)phenyl)pyrrolidine-1-carboxamide]	–
0.251 to 10	O=C(Nc1ccc(F)c(-c2cnn3c(Br)cnc3n2)c1)N1CCCC1 [Example 6, N-(3-(7-bromoimidazo[1,2-b][1,2,4]triazin-3-yl)-4-fluorophenyl)pyrrolidine-1-carboxamide]	–
> 50.1	Cc1cc(F)c(-c2ccn3c(N4CCOCC4)cnc3n2)cc1NC(=O)N1CCCC1 [N-(4-fluoro-2-methyl-5-(3-morpholinoimidazo[1,2-a]pyrimidin-7-yl)phenyl)pyrrolidine-1-carboxamide]	–
> 50.1	CC1(C)CCN(C(=O)Nc2ccc(F)c(-c3ccn4c(N5CCOCC5)cnc4n3)c2)C1 [N-(4-fluoro-3-(3-morpholinoimidazo[1,2-a]pyrimidin-7-yl)phenyl)-3,3-dimethylpyrrolidine-1-carboxamide]	–
> 50.1	CC1(C)CN(C(=O)Nc2ccc(F)c(-c3ccn4c(N5CCOCC5)cnc4n3)c2)C1 [N-(4-fluoro-3-(3-morpholinoimidazo[1,2-a]pyrimidin-7-yl)phenyl)-3,3-dimethylazetidine-1-carboxamide]	–
12.6 to 20	O=C(Nc1ccc(F)c(-c2cnn3ccnc3n2)c1)N1CCCC1 [Example 11, N-(4-fluoro-3-(imidazo[1,2-b][1,2,4]triazin-3-yl)phenyl)pyrrolidine-1-carboxamide]	–
> 50.1	N#Cc1ccc(NC(=O)N2CCCC2)cc1-c1ccn2c(N3CCOCC3)cnc2n1 [N-(4-cyano-3-(3-morpholinoimidazo[1,2-a]pyrimidin-7-yl)phenyl)pyrrolidine-1-carboxamide]	–
> 50.1	O=C1CN(c2cnc3nc(-c4cc(NC(=O)N5CCCC5)ccc4F)ccn23)CCN1 [Example 52, N-(4-fluoro-3-(3-(3-oxopiperazin-1-yl)imidazo[1,2-a]pyrimidin-7-yl)phenyl)pyrrolidine-1-carboxamide]	–
0.251 to 10	O=C(Nc1ccc(F)c(-c2cnn3c(N4CCOCC4)cnc3n2)c1)N1CCCC1 [Example 8, N-(4-fluoro-3-(7-morpholinoimidazo[1,2-b][1,2,4]triazin-3-yl)phenyl)pyrrolidine-1-carboxamide]	–
